Tests used:
[1] = target: 5-hydroxytryptamine receptor 7 (Rattus norvegicus, UniProt P32305)
[2] = target: T1, 5-hydroxytryptamine receptor 1A (Rattus norvegicus, UniProt P19327)
T1 sequence (P19327 whole entry): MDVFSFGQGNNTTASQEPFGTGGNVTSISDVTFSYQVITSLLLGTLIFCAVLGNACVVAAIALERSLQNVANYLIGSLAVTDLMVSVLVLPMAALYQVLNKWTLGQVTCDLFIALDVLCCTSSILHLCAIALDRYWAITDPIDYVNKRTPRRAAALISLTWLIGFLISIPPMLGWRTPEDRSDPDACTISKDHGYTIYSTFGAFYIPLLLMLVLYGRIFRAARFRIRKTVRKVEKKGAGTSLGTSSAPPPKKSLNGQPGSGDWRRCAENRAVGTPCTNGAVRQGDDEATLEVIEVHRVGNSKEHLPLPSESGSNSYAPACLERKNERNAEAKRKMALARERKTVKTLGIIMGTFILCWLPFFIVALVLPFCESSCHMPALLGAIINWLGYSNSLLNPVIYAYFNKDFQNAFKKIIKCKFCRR

Chain of 5-hydroxytryptamine receptor 7 (P32305 whole entry): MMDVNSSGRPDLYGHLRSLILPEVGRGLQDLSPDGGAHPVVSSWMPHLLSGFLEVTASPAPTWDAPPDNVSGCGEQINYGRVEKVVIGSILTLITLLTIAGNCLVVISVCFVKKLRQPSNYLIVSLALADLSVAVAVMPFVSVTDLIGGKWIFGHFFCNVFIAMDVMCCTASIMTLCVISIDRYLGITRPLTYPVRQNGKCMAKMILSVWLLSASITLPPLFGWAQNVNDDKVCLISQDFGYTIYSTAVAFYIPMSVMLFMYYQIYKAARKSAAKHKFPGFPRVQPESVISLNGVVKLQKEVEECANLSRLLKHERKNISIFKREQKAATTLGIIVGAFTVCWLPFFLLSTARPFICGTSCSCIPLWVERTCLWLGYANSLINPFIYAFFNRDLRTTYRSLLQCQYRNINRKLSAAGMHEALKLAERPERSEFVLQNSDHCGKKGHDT

| SMILES | Ki [1] [nM] | Ki [2] [nM] |
| --- | --- | --- |
| CCCN(CCC)C1CCc2cccc(O)c2C1 (stereo not given) | 53 | – |
| Cc1nc2sccn2c(=O)c1CCN1CCC(=C(c2ccc(F)cc2)c2ccc(F)cc2)CC1 | 33 | – |
| CC[C@@H](CO)NC(=O)[C@@H]1C=C2c3cccc4c3c(cn4C)C[C@H]2N(C)C1 | 17 | 545 |
| NCCc1ccc(O)c(O)c1 | 545 | 545 |
| COc1ccccc1N1CCN(CCCCN2C(=O)c3ccccc3C2=O)CC1 [2-{4-[4-(2-Methoxy-phenyl)-piperazin-1-yl]-butyl}-isoindole-1,3-dione] | 79.1 | – |
| CN1C[C@H](C(=O)N[C@]2(C)O[C@@]3(O)[C@@H]4CCCN4C(=O)[C@H](Cc4ccccc4)N3C2=O)C=C2c3cccc4[nH]cc(c34)C[C@H]21 [12'-hydroxy-2'-methyl-5'alpha-(phenylmethyl)ergotaman-3',6',18-trione] | 17 | 3 |
| O=C1CC2(CCCC2)CC(=O)N1CCCCN1CCN(c2ncccn2)CC1 [BUSPAR] | 375 | – |
| CC(C)NCC(O)COc1cccc2[nH]ccc12 (stereo not given) [LB-46] | 545 | 31 |
| CN1C[C@@H](NS(=O)(=O)N(C)C)C[C@@H]2c3cccc4c3c(cn4C)C[C@H]21 [MESULERGINE] | 9.3 | 545 |
| CN1C[C@H](CNC(=O)OCc2ccccc2)C[C@@H]2c3cccc4c3c(cn4C)C[C@H]21 [METERGOLINE] | 16 | 273 |
| CNS(=O)(=O)Cc1ccc2[nH]cc(CCN(C)C)c2c1 [Sumax] | 545 | – |
| COc1cc(N)c(Cl)cc1C(=O)NC1CN2CCC1CC2 (stereo not given) [ZACOPRIDE,R] | 545 | – |
| NCCc1c[nH]c2ccc(C(N)=O)cc12 [[3H]-5-carboxamidotryptamine] | 0.45 | – |
| CSc1ccc2c(c1)C(N1CCN(C)CC1)Cc1ccccc1S2 (stereo not given) [methanesulfonic acid;1-methyl-4-(3-methylsulfanyl-5,6-dihydrobenzo[b][1]benzothiepin-5-yl)piperazine] | – | 8.7 |
